Measurements as given in patent US7150974B1, “Parathyroid hormone receptor binding method” (The General Hospital Corporation, priority 1991, dated 2006).
Entries after “also recorded” stand apart in the source; their conditions may differ.

Tests used:
[1] = biological target: T1, carboxy-terminally-truncated rat receptor, R480 (Rattus norvegicus, UniProt P25961); assay: Binding to carboxy-terminally-truncated rat receptor R480 in COS-7 and CHO cells; details: COS-7 (transient) and CHO (stable) cells
T1 construct: R480, by standard PCR technology using R15B as a template and an upstream primer containing a stop codon inserted at position 481; expressed in transfected cells
T1 sequence (P25961 27-480): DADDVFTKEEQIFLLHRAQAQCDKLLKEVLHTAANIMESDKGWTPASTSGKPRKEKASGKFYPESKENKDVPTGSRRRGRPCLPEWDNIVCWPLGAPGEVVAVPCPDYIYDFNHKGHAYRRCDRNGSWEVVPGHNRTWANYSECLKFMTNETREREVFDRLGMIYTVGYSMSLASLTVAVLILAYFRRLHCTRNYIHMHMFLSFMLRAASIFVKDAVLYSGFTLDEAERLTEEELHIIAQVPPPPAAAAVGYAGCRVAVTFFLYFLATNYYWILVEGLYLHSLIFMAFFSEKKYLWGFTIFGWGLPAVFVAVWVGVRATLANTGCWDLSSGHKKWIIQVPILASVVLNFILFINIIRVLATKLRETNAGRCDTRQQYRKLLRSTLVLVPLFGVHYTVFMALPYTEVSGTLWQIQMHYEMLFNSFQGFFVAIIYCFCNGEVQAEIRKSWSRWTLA
Procedure: [Nle^8,Nle^18,Tyr^34]bPTH-(1-34)amide (NlePTH), and [Tyr^36]PTHrP(1-36)amide(PTHrP) were iodinated with Na^125I (carrier free, New England Nuclear, Boston, Mass.) as previously reported (Segre et al., J. Biol. Chem. 254: 6980, 1979), and purified by reverse-phase HPLC. In brief, the labeled peptide was dissolved in 0.1% trifluoracetic acid (TFA), applied to a C18 Sep-pak cartridge (Waters Associates, Inc., Milford, Mass.) and eluted with a solution of 60% acetonitrile in 0.1% TFA. After lyophilization, the radioligand then was applied to C18-μBondapak column (3.9 mm×30 cm. Waters Associates) and eluted over 30 min with a linear gradient of 30-50% acetonitrile-0.1% TFA at a flow rate of 2 ml/min. The radioligand eluted in two peaks; the first peak, which eluted at approximately 38% acetonitrile, was used in these studies because it gave higher total and specific bindings. […]
Incubations were terminated by aspirating the buffer, and repeatedly (×3) washing the culture dishes, containing the adherent cells with chilled 0.9% NaCl solution, over a 15 sec period. Cell-bound radioactivity was recovered by the sequential addition (×3) of 1 N NaOH (200 μl) to each well. […] A second and third extraction with 1 N NaOH (200 μl) were combined with the first, and the total radioactivity was counted in a γ-spectrometer (Packard Instruments, Downers Grove, Ill.). […]

[2] = biological target: T2, opossum kidney PTH/PTHrP receptor clone, OK-H (Didelphis virginiana, UniProt P25107, I132F/S86P); assay: Inositol phosphate metabolism, COS cells expressing OK-H; format: cell-based; details: FIG. 15, listed as NlePTH
T2 construct: expressed in transfected cells; host or cells: COS cells, transient, plasmid OK-H (pcDNA I)
T2 sequence (P25107 other isoform, or with tags, fused parts or gaps S86P/I132F): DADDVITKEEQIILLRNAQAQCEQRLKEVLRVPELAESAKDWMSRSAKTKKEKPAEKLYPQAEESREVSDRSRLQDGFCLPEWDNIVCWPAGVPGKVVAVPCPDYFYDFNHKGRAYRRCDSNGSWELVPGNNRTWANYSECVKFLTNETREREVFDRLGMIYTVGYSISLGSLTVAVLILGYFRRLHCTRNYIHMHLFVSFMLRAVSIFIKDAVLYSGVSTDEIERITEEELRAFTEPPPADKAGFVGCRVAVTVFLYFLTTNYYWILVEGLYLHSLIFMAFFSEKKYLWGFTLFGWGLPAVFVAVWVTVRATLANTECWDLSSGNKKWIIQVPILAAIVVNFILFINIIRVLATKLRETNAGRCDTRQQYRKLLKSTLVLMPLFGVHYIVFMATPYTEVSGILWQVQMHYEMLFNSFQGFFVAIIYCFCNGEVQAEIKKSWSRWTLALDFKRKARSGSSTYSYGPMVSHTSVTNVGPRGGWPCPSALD

Question: Which results are given for [Nle^8,18, Tyr^34]bPTH(1-34)amide?
Answer: affinity for truncated receptor R480 compared with wild type receptor RB [1]: equivalent affinities; inositol phosphate metabolism (IP3 and IP2 accumulation) [2]: do not show a detectable increase; also recorded: did not show any detectable increase
